This is an account of results in ChEMBL document CHEMBL4152189, “Incorporation of nitric oxide donor into 1,3-dioxyxanthones leads to synergistic anticancer activity” (Eur J Med Chem, 2018).

Assay [1] concerns L02. Put plainly: Induction of NO generation in human HL-7702 cells assessed as nitrite levels at 0.66 uM after 60 hrs by Griess assay (reference value: 11.8 +/- 1.3 uM). The assay is classed as functional.
In the next assay the test system is MCF7. Description: Growth inhibition of human MCF7 cells after 24 hrs by MTT assay. The class given is functional, cell-based. The following applies: MCF7, 24 h.
In assay [2] the test system is HepG2. Description: Induction of NO generation in human HepG2 cells assessed as nitrite levels at 0.66 uM after 12 hrs by Griess assay (reference value: 12.7 +/- 1.8 uM). The class given is functional.
For a further assay, the system named is MDA-MB-231. Description: Growth inhibition of human MDA-MB-231 cells after 24 hrs by MTT assay. The assay is classed as functional, cell-based. Conditions: MDA-MB-231, 24 h.
Assay [3] concerns L02. Description: Induction of NO generation in human HL-7702 cells assessed as nitrite levels at 0.66 uM after 1 hr by Griess assay (reference value: 11.6 +/- 1.1 uM). The class given is functional.
For assay [4], the system named is HepG2. Put plainly: Induction of NO generation in human HepG2 cells assessed as nitrite levels at 0.66 uM after 60 hrs by Griess assay (reference value: 12.8 +/- 1.5 uM). The class given is functional.
The subject of assay [5] is HepG2. Description: Induction of NO generation in human HepG2 cells assessed as nitrite levels at 0.66 uM after 48 hrs by Griess assay (reference value: 12.8 +/- 1.7 uM). The assay is classed as functional.
In assay [6] the test system is L02. Put plainly: Induction of NO generation in human HL-7702 cells assessed as nitrite levels at 0.66 uM after 12 hrs by Griess assay (reference value: 11.8 +/- 1.2 uM). The class given is functional.
Assay [7] deals with L02. Description: Induction of NO generation in human HL-7702 cells assessed as nitrite levels at 0.66 uM after 3 hrs by Griess assay (reference value: 11.6 +/- 1.2 uM). The assay is classed as functional.
The test system of assay [8] is HepG2. Description: Induction of NO generation in human HepG2 cells assessed as nitrite levels at 0.66 uM after 1 hr by Griess assay (reference value: 12.9 +/- 1.5 uM). The class given is functional.
Assay [9] relates to L02. Description: Induction of NO generation in human HL-7702 cells assessed as nitrite levels at 0.66 uM after 48 hrs by Griess assay (reference value: 11.6 +/- 1.1 uM). The assay is classed as functional.
In assay [10] the test system is L02. Description: Induction of NO generation in human HL-7702 cells assessed as nitrite levels at 0.66 uM after 24 hrs by Griess assay (reference value: 11.6 +/- 1.1 uM). The assay is classed as functional.
The subject of assay [11] is L02. Put plainly: Induction of NO generation in human HL-7702 cells assessed as nitrite levels at 0.66 uM after 6 hrs by Griess assay (reference value: 11.8 +/- 1.1 uM). The class given is functional.
In assay [12] the test system is HepG2. Put plainly: Induction of NO generation in human HepG2 cells assessed as nitrite levels at 0.66 uM after 3 hrs by Griess assay (reference value: 12.8 +/- 1.5 uM). The class given is functional.
Assay [13] has as its system HepG2. Put plainly: Induction of NO generation in human HepG2 cells assessed as nitrite levels at 0.66 uM after 6 hrs by Griess assay (reference value: 12.6 +/- 1.1 uM). The class given is functional.
For assay [14], the system named is HepG2. Put plainly: Induction of NO generation in human HepG2 cells assessed as nitrite levels at 0.66 uM after 24 hrs by Griess assay (reference value: 12.8 +/- 1.7 uM). The class given is functional.
The subject of assay [15] is HepG2. Description: Growth inhibition of human HepG2 cells after 24 hrs by MTT assay. The assay is classed as functional, cell-based. The following applies: HepG2, 24 h.

Regarding `O=[N+]([O-])OCCCCCO`, the Activity in the assay with L02 [1] amounted to 13.3 µM; in the assay with HepG2 [2], 26 µM; in the assay on L02 [3], 13.5 µM; in the assay with HepG2 [4] it was 17.1 µM; with HepG2 [5], 24.6 µM; in the assay with L02 [6], 17.5 µM. Moreover, the Activity with L02 [7] came out at 13.8 µM; in the assay with HepG2 [8] it was 16.2 µM; in the assay with L02 [9], 13.4 µM; with L02 [10] it was 14.1 µM; in the assay with L02 [11], 16 µM; in the assay on HepG2 [12], 18.4 µM. Further, the figures for the Activity in the assay with HepG2 [13] and in the assay with HepG2 [14] were 23.3 µM and 29.2 µM, respectively. Further, the results for the IC50 in the assay with MCF7, with MDA-MB-231 and in the assay with HepG2 [15] were 102 µM, 140 µM and 72.8 µM, respectively.
On to `COc1ccc2oc3cc(OCCCCO[N+](=O)[O-])cc(O)c3c(=O)c2c1`, for which the IC50 in the assay on MCF7 came out at 83.2 µM; in the assay on MDA-MB-231 it was 22.3 µM; with HepG2 [15] it was 52.1 µM.
In the same order, the values of `COc1cccc2oc3cc(O)cc(O)c3c(=O)c12` are over 200 µM, 66 µM and 32.5 µM.
As for `O=c1c2ccccc2oc2cc(OCCCCCCCO[N+](=O)[O-])cc(O)c12`, the IC50 came out at 153 µM in the assay on MCF7, 43.5 µM with MDA-MB-231 and 5.24 µM with HepG2 [15].
